In ChEMBL document CHEMBL1132604, “Hypoxia-selective nitrobenzyloxycarbonyl derivatives of 1,2-bis(methylsulfonyl)-1-(2-chloroethyl)hydrazines” (1999):

Legend:
Type in all cases: functional
Mus musculus [1] = assay: Surviving fraction of compound on BALB/c mice bearing well established intradermal EMT6 solid tumors was measured by intraperitoneal injection without any treatment.
Mus musculus [2] = assay: Surviving fraction of compound on BALB/c mice bearing well established intradermal EMT6 solid tumors was measured by intraperitoneal injection on treatment with X-ray alone.
Mus musculus [3] = assay: Surviving fraction of compound on BALB/c mice bearing well established intradermal EMT6 solid tumors was measured by intraperitoneal injection on treatment with drug alone.
Mus musculus [4] = assay: Surviving fraction of compound on BALB/c mice bearing well established intradermal EMT6 solid tumors was measured by intraperitoneal injection on treatment with drug and X-ray.
Mus musculus [5] = assay: Surviving fraction of compound on BALB/c mice bearing well established intradermal EMT6 solid tumors was measured by intraperitoneal injection on treatment with X-ray.
Mus musculus [6] = assay: Surviving fraction of compound on BALB/c mice bearing well established intradermal EMT6 solid tumors was measured by intraperitoneal injection on treatment with drug.

Structure (SMILES) | Surviving fraction (Mus musculus [1]) | Surviving fraction (Mus musculus [2]) | Surviving fraction (Mus musculus [3]) | Surviving fraction (Mus musculus [4]) | Surviving fraction (Mus musculus [5]) | Surviving fraction (Mus musculus [6])
COc1cc(COC(=O)N(N(CCCl)S(C)(=O)=O)S(C)(=O)=O)c([N+](=O)[O-])cc1OC | 1 | 0.043 | 0.856 | 0.024 |  | 
CS(=O)(=O)N(CCCl)N(C(=O)OCc1ccc([N+](=O)[O-])cc1)S(C)(=O)=O | 1 |  |  | 0.013 | 0.043 | 0.841
